Row | melting point | Compound
1 | 175 °C | CC(=O)c1cccc2c1[C@@H](NC(=O)c1ccc(F)cc1)[C@H](O)C(C)(C)O2 (relative stereo)
2 | 130 to 132 °C | COc1ccc2cc(-c3cnccn3)ccc2n1
3 | 315 to 316 °C | Oc1ccccc1CNNCc1ccccc1O
4 | 193 to 196 °C | CCCCC1(C(=O)N[C@@H](Cc2ccc(NC(=O)c3c(Cl)cccc3Cl)cc2)C(=O)OC)CCCC1
5 | 168 °C | Cc1cc(C)cc(-c2cc(O)c(Sc3ccccc3CC3CC3)c(=O)o2)c1
6 | 226 to 228 °C | Oc1c(Br)cc(-c2c3ccccc3c(Br)c3oc4ccccc4c23)c(O)c1Br
7 | 150 °C | CCOC(=O)CNC(=O)N1CCc2cc(S(=O)(=O)N3CCN(c4cccc(Cl)c4)CC3)ccc21
8 | 155 to 156 °C | O=C(NCCO)c1cccc(-c2cncc3cc(Cc4cccc(C(F)(F)F)c4)oc23)c1
9 | 116 to 119 °C | O=C(NC(Cc1ccccc1)C(=O)O)c1ccc(-c2ccccc2OC2OC(CO)C(O)C(O)C2O)cc1 (centres undefined)
10 | 91 to 93 °C | CCOC(=O)COc1cccc2c1CCC2=O
11 | 120 to 121 °C | CCOC(=O)C1=Cc2cc(Br)ccc2NCC1
12 | 168 °C | COc1cc(Cc2cnc(N)nc2N)cc(OC(C)C(C)=O)c1OC (centres undefined)
13 | 180 to 183 °C | CCCCCCCCC(O)C(=O)NCCSSCCNC(=O)C(O)CCCCCCCC (centres undefined)
14 | 113 to 115 °C | CCN(CC)CCNC(=O)c1cc(Cl)c(N)cc1OC(C)C(C)=NO (centres undefined)
15 | 180 to 183 °C | CC#CCNC(=NC#N)SC
16 | 152 to 155 °C | O=S(c1ncccn1)c1cccc2cccnc12 (centres undefined)
17 | 107 to 109 °C | Cc1ccc(C)c2c1OC(=O)C2c1ccc(C(C)C)cc1 (centres undefined)
18 | 114 to 116 °C | COc1ccc(-c2c([N+](=O)[O-])cnc3ccc(Cl)cc23)c(OC)c1OC
19 | 228 to 229 °C | CC(=O)N1CCC(n2cnc3ccc(-c4nnc(C)o4)cc32)CC1
20 | 183 to 185 °C | CCCCc1nc(=O)c2cc(C(O)c3ccco3)ccc2[nH]1 (centres undefined)
21 | 138 to 140 °C | COc1c(Cl)c(OC)c2cnoc2c1Cl
22 | 131 to 132 °C | CCOC(=O)c1cccc2nc(OCC)n(Cc3ccc(-c4ccccc4C#N)cc3)c12
23 | 166 to 168 °C | CCOC(=O)c1nc2ccccn2c1S(N)(=O)=O

Row | melting point | Compound
24 | 124 to 126 °C | N#Cc1cnn2c1N(C(=O)CN1CCN(CC#CCN3CCCC3=O)CC1)CC=C2c1cccc(C(F)(F)F)c1
25 | 167 to 169 °C | O=c1[nH]c(CCCOc2cccc(CN3CCCCC3)c2)ncc1Cc1ccnc(O)c1
26 | 62 °C | O=C1CCc2c(Br)cccc2C1
27 | 93 to 96 °C | CSc1nc(Cl)cc(-c2ccc(C(F)(F)F)cc2)n1
28 | 118 to 120 °C | COc1ccc(C2=C(c3ccc(S(C)(=O)=O)cc3)CCC2)cc1Cl
29 | 116 to 118 °C | CC1Nc2ccc(-c3coc(C#N)c3)cc2C(C)(C)O1 (centres undefined)
30 | 117 to 118 °C | CON(C(=O)c1cn(C)nc1C(F)F)C(CF)Cc1c(Cl)cc(Cl)cc1Cl (centres undefined)
31 | 77 to 78 °C | CC(C)(C)NS(=O)(=O)c1ccccc1
32 | 165 to 167 °C | Cc1cc(=O)n2cccc(SC(=O)N(C)C)c2n1
33 | 120 to 123 °C | COc1ccc(C(O)CN(Cc2ccccc2)Cc2ccccc2)cc1C(N)=O (centres undefined)
34 | 206 to 207 °C | COc1cc(Nc2ncc(C#N)c(-c3ccccc3)n2)cc(OC)c1
35 | 137 to 139 °C | CC(CCNC(=O)c1ccc(Cl)nc1)n1ccnc1 (centres undefined)
36 | 160 to 166 °C | CCCCc1nc2c(N)nc3ccccc3c2n1CCCCNC(=O)Nc1cccc(NC(=O)NCCCCn2c(CCCC)nc3c(N)nc4ccccc4c32)c1
37 | 184 to 186 °C | CCC(CC)Oc1cc(C)nc2c1[nH]c(=O)n2-c1c(C)cc(C)cc1C
38 | 118 to 120 °C | CC(=O)Oc1c(C)cc2c(c1C)C(C)CN2C(=O)C(C)C (centres undefined)
39 | 68 °C | CC(OCc1cc2cc(Cl)ccc2n1S(=O)(=O)c1ccc2c(c1)OCCN2C)C(=O)O (centres undefined)
40 | 260 to 262 °C | O=C1CCC(N2C(=O)c3cccc(NC(=O)c4cccc(F)c4)c3C2=O)C(=O)N1 (centres undefined)
41 | 172 to 173 °C | COCCNc1cc(C)n(COC)c(=O)c1[N+](=O)[O-]
42 | 121 °C | CC(NC(=O)C(CS)C1CCc2ccccc21)C(=O)O (centres undefined)
43 | 160 to 161 °C | CCC(O)CNC(=O)c1nn(C2CCCCO2)cc1NC(=O)c1ccccn1 (centres undefined)
44 | 116 °C | CN1C(=O)C(CCCCBr)Sc2ccccc21 (centres undefined)
45 | 150 °C | COC(=O)c1cc(S(C)(=O)=O)c(Br)cc1C
46 | 200 to 202 °C | CC(=O)N1N=C2C(=Cc3cccc(C(F)(F)F)c3)CS(=O)(=O)CC2C1c1cccc(C(F)(F)F)c1 (centres undefined)

Row | melting point | Compound
47 | 94 to 96 °C | CC(C)(C)C(=O)Oc1ccc(C(=O)c2ccc(OC(=O)C(C)(C)C)cc2OC(=O)C(C)(C)C)cc1
48 | 241 °C | CC(=O)c1ccc2[nH]c3ccc(C(C)=O)cc3c2c1
49 | 284 to 287 °C | COc1ccc(Cl)cc1-c1c(N)c(=O)[nH]c2cc(Cl)cc(Cl)c12
50 | 211 to 212 °C | CCCn1nc2c(N)nc3ccccc3c2c1CCN(C(N)=O)c1ccc(F)c(F)c1
51 | 89 to 91 °C | CC(C)(C)NCC(O)COc1cccc2nsnc12 (centres undefined)
52 | 113 to 115 °C | CC(C)(C)OC(=O)CNS(=O)(=O)c1ccc(N2CCC(NC[C@H](O)c3ccc(O)c(NS(C)(=O)=O)c3)CC2)cc1
53 | 164 to 166 °C | O=C1C(=O)N(Cc2ccc(Br)cc2F)c2c(Cl)cccc21
54 | 197 to 198 °C | CC(=O)c1ccc(-c2coc3ccc(-c4nnc(C)o4)cc23)cc1
55 | 186 to 189 °C | CC1(C)Oc2cc3nonc3cc2C(N2CCC(O[N+](=O)[O-])CC2=O)C1O (centres undefined)
56 | 92 to 94 °C | CC1=C(C(=O)OCCN2C(=O)c3ccccc3C2=O)C(c2cccc([N+](=O)[O-])c2)C(C(=O)OCCN2C(=O)c3ccccc3C2=O)=C(C)N1
57 | 130 to 132 °C | O=C(CCC1CCCC1)Nc1ccc(-n2nc(C(F)(F)F)cc2C(F)(F)F)cc1
58 | 114 to 118 °C | Cc1ccc(C=CCC(C(=O)C=Cc2ccc(Cl)cc2)c2ccccc2)cc1 (centres undefined)
59 | 183 to 185 °C | O=c1oc(-c2cccc(-c3ccccc3)c2)cc(O)c1Sc1ccc2ccccc2c1
60 | 61 to 63 °C | CCCCCCC(C)Nc1ccc2c(c1)CCN2c1ncnc2cc(OC)c(OC)cc12 (centres undefined)
61 | 149 to 150 °C | CCOC(=O)CNC(=O)[C@H](CC(C)C)NC(=O)[C@@H]1CCCN1C(=O)OCc1ccccc1
62 | 207 to 208 °C | CC(=O)Oc1c(C)cc(C=CC(=O)Nc2cnc3c(C)cc(C)cc3c2-c2ccccc2Cl)cc1C
63 | 223 to 225 °C | COC(=O)CC1C(=O)Nc2cc(S(N)(=O)=O)sc2S1(=O)=O (centres undefined)
64 | 252 °C | Cc1ccc(N2C(=O)C(O)=C(C(=O)c3ccc(C(C)C)cc3)C2c2ccc(C(F)(F)F)cc2)nn1 (centres undefined)
65 | 184 to 187 °C | COc1ccc(C2=NN(c3ccc(OCC(N)=O)cc3)C(=O)C(C)(C)C2)cc1OC
66 | 100 to 101 °C | CCCC(CO)(CO)CO
67 | 93.8 to 95.1 °C | FC(F)(F)CN1CCC(CNOCc2ccccc2)CC1
68 | 188 to 190 °C | O=C(O)c1cc(-n2c(-c3ccccc3)cc3c2CCCC3)c(C(F)(F)F)cc1O
69 | 117 to 119 °C | O=C(NCc1cccc2ccccc12)NC1CCN(S(=O)(=O)c2ccccc2C(F)(F)F)C1 (centres undefined)

Row | melting point | Compound
70 | 237 to 239 °C | CCNc1nc(Cl)nc2nc[nH]c12
71 | 185 to 186 °C | C[C@]1(COc2ccc3nc(N4CCC(Cc5ccc(OC(F)(F)F)cc5)CC4)ccc3c2)Cn2cc([N+](=O)[O-])nc2O1
72 | 196 to 198 °C | COc1ccc2c(c1)Nc1cccc(S(=O)(=O)N(C)C)c1S2
73 | 43 to 45 °C | c1ccc(Cn2ccc3ccccc32)cc1
74 | 104 to 105 °C | CCCc1ccccc1OCCCOc1cccc(OC(=CC(=O)O)C(=O)O)c1CC
75 | 167 to 168 °C | CNc1cc(CO)cc(S(N)(=O)=O)c1Oc1ccccc1
76 | 166 to 168 °C | CN(C)c1cc(Br)cc(S(=O)(=O)c2ccc([N+](=O)[O-])cc2)c1
77 | 216 to 218 °C | O=C(O)C(Cc1ccccc1)Nc1cc(-c2ccc(CCc3ccccc3)cc2)ncn1 (centres undefined)
78 | 85 °C | CSc1nc(SC)c2ccccc2n1
79 | 113 to 115 °C | COc1ccc(S(=O)(=O)C2(CCCC#Cc3ccc(Cl)cc3)SC(=O)N(C)C2=O)cc1 (centres undefined)
80 | 98 to 99 °C | CCC(=O)c1ccc(-c2ccccc2)cc1
81 | 175 to 177 °C | Cc1c(OCC(C)(C)CS(N)(=O)=O)nn2ncnc2c1C
82 | 166 °C | Cc1cccc(N(CC(=O)OC(C)(C)C)C(=O)CN2C(=O)c3ccccc3C2=O)c1
83 | 214 to 216 °C | O=C(O)c1cccc(C(=O)O)c1Nc1cccc(I)c1
84 | 119 °C | CCCCC(CC)COC(=O)C(C#N)=Cc1ccc(NC(C)=O)cc1 (centres undefined)
85 | 63 °C | CCOC(=O)C(Sc1ccc(O)cc1)c1ccc(Cl)cc1 (centres undefined)
86 | 94 to 95 °C | C[C@@H]1CN(c2ccc(C(F)(F)F)cn2)C[C@H](C)N1CC(=O)N1CC=C(c2ccc3ccccc3n2)CC1
87 | 203 to 204 °C | COc1ccccc1-n1c(=O)[nH]c2c(C(N)=O)nc(-c3ccc4cc[nH]c4c3)nc21
88 | > 250 °C | COc1cc2nc(N3CCN(c4nc5ncccc5o4)CC3)nc(N)c2cc1OC
89 | 124 to 126 °C | Nc1nc2c(OCCO)cccc2o1
90 | 68 to 70 °C | CN1CCN(c2nn(CC3CC3)c3ccccc23)CC1
91 | 154 to 156 °C | COc1ccc([C@@H]2Sc3cc(Cc4ccc(F)cc4)ccc3N(CCN(C)C)C(=O)[C@@H]2OC(C)=O)cc1

Row | Compound | melting point
92 | O=c1[nH]c(N[N+](=O)[O-])ncc1Cc1ccco1 | 183 to 184 °C
93 | CNCCc1c[nH]c2ccc(Cn3cncn3)cc12 | 139 to 141 °C
94 | O=C1NC(O)C2CN(Cc3ccccc3)CC12 (centres undefined) | 138 °C
95 | CC(C)n1cc(C(=O)O)c2ccc(Br)cc21 | 207 to 209 °C
96 | ClCOc1nc(Cl)c(Cl)cc1Cl | 94 to 96 °C
97 | CC(C)(C)NCC(O)c1ccc(F)cc1 (centres undefined) | 117 °C
98 | C=Cn1cc(C(=O)O)c(=O)c2c(C)c(F)c(N3CCNCC3)c(F)c21 | 222 to 225 °C
99 | CCOC(=O)Cn1c(C(=O)NCc2nnc3n2-c2sc(CC)cc2C(c2ccccc2Cl)=NC3)cc2ccccc21 | 215 to 217 °C

Reference: a melting point compilation (Tetko et al.; mined from patent text by program, amines drawn as free bases though some values may be those of a salt)
